Measured values published in patent US20120071522A1, “THERMAL STABILIZATION OF BIOCIDES IN MATRIX COMPOSITIONS PROCESSED AT ELEVATED TEMPERATURES” (priority 2004, published 2012).

Assay: Thermal stability (color change) of biocide in polyethylene and wood-plastic composite matrixes processed at elevated temperatures
Assay type: physicochemical

Compound | color change
O=C1c2ccccc2C(=O)N1SC(Cl)(Cl)Cl [Fungitrol® 11, N-(trichloromethylthio) phthalimide] | no color change
CCCCNC(=O)OCC#CI [IPBC] | no color change
